Test results as given in patent US20230203043A1, “NOVEL IMIDAZOPYRAZINE DERIVATIVES” (Hoffmann-La Roche Inc., priority 2020, published 2023).
Structures can show the parent of a compound that is named as a salt.

Tested on: Acinetobacter baumannii ATCC17961
Assay: Antimicrobial susceptibility testing: 90% growth inhibitory concentration (IC90) determination in Iso-Sensitest broth, OD600 growth
Assay type: cell-based
Details: Acinetobacter baumannii, ATCC17961, 16 h, read-out: A. baumannii ATCC 17961 IC90 (uM), strain ATCC 17961, OD600 growth over 16 h
Outline: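 Growth monitored at 600 nm every 20 min for 16 h at 35±2 °C, inoculum ~5×10^(5) CFU/ml in Iso-Sensitest medium. Compounds in 10-point twofold series, e.g. 50 to 0.097 μM final; 90% inhibitory concentration taken from log-phase growth.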

**Q.** `Cc1cc(Nc2nccn3c(-c4cn(C)nc4C(F)(F)F)cnc23)ccc1C(=O)N1CCN(C(=O)N[C@H]2CNC[C@@H]2O)CC1` [Example 470, formic acid; N-[(3S,4S)-4-hydroxypyrrolidin-3-yl]-4-[2-methyl-4-[[3-[1-methyl-3-(trifluoromethyl)pyrazol-4-yl]imidazo[1,2-a]pyrazin-8-yl]amino]benzoyl]piperazine-1-carboxamide] was tested. Which IC90 did it give?
**A.** The IC90 was 0.793 µM.

**Q.** Which IC90 does the source give for `Cc1cc(Nc2nccn3c(-c4cn(C)nc4C(F)(F)F)cnc23)ccc1C(=O)N1CCN(C(=O)C2(O)CCNCC2)CC1` [Example 471, formic acid; [4-(4-hydroxypiperidine-4-carbonyl)piperazin-1-yl]-[2-methyl-4-[[3-[1-methyl-3-(trifluoromethyl)pyrazol-4-yl]imidazo[1,2-a]pyrazin-8-yl]amino]phenyl]methanone] here?
**A.** The IC90 was 1.1 µM.

**Q.** Which IC90 does the source give for `Cc1cc(Nc2nccn3c(-c4cn(C)nc4C(F)(F)F)cnc23)ccc1C(=O)N1CCN(C(=O)[C@@H]2C[C@](C)(O)CN2)CC1` [Example 472, formic acid; [4-[(2S,4S)-4-hydroxy-4-methylpyrrolidine-2-carbonyl]piperazin-1-yl]-[2-methyl-4-[[3-[1-methyl-3-(trifluoromethyl)pyrazol-4-yl]imidazo[1,2-a]pyrazin-8-yl]amino]phenyl]methanone] here?
**A.** The IC90 was 1.24 µM.

**Q.** For `Cc1cc(Nc2nccn3c(-c4cn(C)nc4C(F)(F)F)cnc23)ccc1C(=O)N1CCN(C(=O)[C@@H]2C[C@@H](O)CN2)CC1` [Example 473, formic acid; [4-[(2S,4R)-4-hydroxypyrrolidine-2-carbonyl]piperazin-1-yl]-[2-methyl-4-[[3-[1-methyl-3-(trifluoromethyl)pyrazol-4-yl]imidazo[1,2-a]pyrazin-8-yl]amino]phenyl]methanone], which IC90 is on record?
**A.** Its IC90 is 1.29 µM.

**Q.** With `Cc1cc(Nc2nccn3c(-c4cn(C)nc4C(F)(F)F)cnc23)ccc1C(=O)N1CCN(C(=O)[C@@H]2CCNC[C@@H]2O)CC1` [Example 474, formic acid; [4-[(3R,4R)-3-hydroxypiperidine-4-carbonyl]piperazin-1-yl]-[2-methyl-4-[[3-[1-methyl-3-(trifluoromethyl)pyrazol-4-yl]imidazo[1,2-a]pyrazin-8-yl]amino]phenyl]methanone] as the molecule, how does the IC90 read?
**A.** The IC90 was 1.34 µM.

**Q.** With `Cc1cc(Nc2nccn3c(-c4cn(C)nc4C(F)(F)F)cnc23)ccc1C(=O)N1CCN(C(=O)[C@H]2CCNC[C@H]2O)CC1` [Example 475, formic acid; [4-[(3S,4S)-3-hydroxypiperidine-4-carbonyl]piperazin-1-yl]-[2-methyl-4-[[3-[1-methyl-3-(trifluoromethyl)pyrazol-4-yl]imidazo[1,2-a]pyrazin-8-yl]amino]phenyl]methanone] as the molecule, how does the IC90 read?
**A.** Its IC90 is 1.64 µM.

**Q.** With `Cc1cc(Nc2nccn3c(-c4cn(C)nc4C(F)(F)F)cnc23)ccc1C(=O)N1CCN(C(=O)[C@H]2C[C@H](O)CN2)CC1` [Example 476, formic acid; [4-[(2R,4S)-4-hydroxypyrrolidine-2-carbonyl]piperazin-1-yl]-[2-methyl-4-[[3-[1-methyl-3-(trifluoromethyl)pyrazol-4-yl]imidazo[1,2-a]pyrazin-8-yl]amino]phenyl]methanone] as the molecule, how does the IC90 read?
**A.** The IC90 was 2.01 µM.

**Q.** For `Cc1cc(Nc2nccn3c(-c4cn(C)nc4C(F)(F)F)cnc23)ccc1C(=O)N1CCN(C(=O)[C@@H]2CCNC[C@H]2O)CC1` [Example 477, formic acid; [4-[(3S,4R)-3-hydroxypiperidine-4-carbonyl]piperazin-1-yl]-[2-methyl-4-[[3-[1-methyl-3-(trifluoromethyl)pyrazol-4-yl]imidazo[1,2-a]pyrazin-8-yl]amino]phenyl]methanone], which IC90 is on record?
**A.** The IC90 was 3.24 µM.

**Q.** With `Cc1cc(Nc2nccn3c(-c4cn(C)nc4C(F)(F)F)cnc23)ccc1C(=O)N1CCN(C(=O)[C@H]2CCNC[C@@H]2O)CC1` [Example 478, formic acid; [4-[(3R,4S)-3-hydroxypiperidine-4-carbonyl]piperazin-1-yl]-[2-methyl-4-[[3-[1-methyl-3-(trifluoromethyl)pyrazol-4-yl]imidazo[1,2-a]pyrazin-8-yl]amino]phenyl]methanone] as the molecule, how does the IC90 read?
**A.** The IC90 was 3.46 µM.

**Q.** With `CCc1cc(Nc2nccn3c(-c4cn(CC#N)nc4C(F)(F)F)cnc23)ccc1C(=O)NCCCNC(=O)[C@@H]1CC[C@H](N)C1` [Example 483, N-(3-((1R,3S)-3-(l2-azaneyl)cyclopentane-1-carboxamido)propyl)-4-((3-(1-(cyanomethyl)-3-(trifluoromethyl)-1H-pyrazol-4-yl)imidazo[1,2-a]pyrazin-8-yl)amino)-2-ethylbenzamide formate] as the molecule, how does the IC90 read?
**A.** The IC90 was 0.194 µM.

**Q.** With `CCc1cc(Nc2nccn3c(-c4cn(CC(F)F)nc4C(F)(F)F)cnc23)ccc1C(=O)NCCCNC(=O)[C@H]1CC[C@@H](N)C1` [Example 485, N-(3-((1S,3R)-3-aminocyclopentane-1-carboxamido)propsl)-4-((3-(1-(2,2-difluoroethyl)-3-(trifluoromethyl)-1H-pyrazol-4-yl)imidazo[1,2-a]pyrazin-8-yl)amino)-2-ethylbenzamide formate] as the molecule, how does the IC90 read?
**A.** Its IC90 is 0.189 µM.

Same assay, conditions: Acinetobacter baumannii, ATCC17961, 16 h, strain ATCC 17961, OD600 growth over 16 h, read-out: A. baumannii ATCC 17961 IC90

**Q.** With `Cc1cc(Nc2nccn3c(-c4c[nH]nc4C(F)(F)F)cnc23)ccc1C(=O)N1CCN(C(=O)[C@@H]2C[C@@H](O)CN2)CC1` [Example 479, [4-[(2S,4R)-4-hydroxypyrrolidine-2-carbonyl]piperazin-1-yl]-[2-methyl-4-[[3-[3-(trifluoromethyl)-1H-pyrazol-4-yl]imidazo[1,2-a]pyrazin-8-yl]amino]phenyl]methanone hydrochloride] as the molecule, how does the IC90 read?
**A.** The IC90 was 0.624 µM.

**Q.** `Cc1cc(Nc2nccn3c(-c4c[nH]nc4C(F)(F)F)cnc23)ccc1C(=O)N1CCNCC1` [Example 480, [2-methyl-4-[[3-[3-(trifluoromethyl)-1H-pyrazol-4-yl]imidazo[1,2-a]pyrazin-8-yl]amino]phenyl]-piperazin-1-ylmethanone] was tested. Which IC90 did it give?
**A.** Its IC90 is 1.84 µM.

**Q.** `N#CCn1cc(-c2cnc3c(Nc4ccc(C(=O)N5CCN(C(=O)[C@H]6[C@@H]7CNC[C@@H]76)CC5)c(Cl)c4)nccn23)c(C(F)(F)F)n1` [Example 481, 2-(4-(8-((4-(4-((1R,5S,6r)-3-azabicyclo[3.1.0]hexane-6-carbonyl)piperazine-1-carbonyl)-3-chlorophenyl)amino)imidazo[1,2-a]pyrazin-3-yl)-3-(trifluoromethyl)-1H-pyrazol-1-yl)acetonitrile formate] was tested. Which IC90 did it give?
**A.** Its IC90 is 0.117 µM.

**Q.** How did the IC90 turn out when `CCc1cc(Nc2nccn3c(-c4cn(CC#N)nc4C(F)(F)F)cnc23)ccc1C(=O)NCCCNC(=O)[C@H]1C[C@@H](N)C1` [Example 482, N-(3-((1s,3s)-3-aminocyclobutane-1-carboxamido)propyl)-4-((3-(1-(cyanomethyl)-3-(trifluoromethyl)-1H-pyrazol-4-yl)imidazo[1,2-a]pyrazin-8-yl)amino)-2-ethylbenzamide formate] was run?
**A.** The IC90 was 0.174 µM.

**Q.** For `CCc1cc(Nc2nccn3c(-c4cn(CC#N)nc4C(F)(F)F)cnc23)ccc1C(=O)NCCCNC(=O)[C@H]1CC[C@@H](N)C1` [Example 484, N-(3-((1S,3R)-3-aminocyclopentane-1-carboxamido)propyl)-4-((3-(1-(cyanomethyl)-3-(trifluoromethyl)-1H-pyrazol-4-yl)imidazo[1,2-a]pyrazin-8-yl)amino)-2-ethylbenzamide formate], which IC90 is on record?
**A.** Its IC90 is 0.154 µM.

**Q.** For `CCc1cc(Nc2nccn3c(-c4cn(CC#N)nc4C(F)(F)F)cnc23)ccc1C(=O)NCCNC(=O)C1CCNCC1` [Example 486, N-(2-(4-((3-(1-(cyanomethyl)-3-(trifluoromethyl)-1H-pyrazol-4-yl)imidazo[1,2-a]pyrazin-8-yl)amino)-2-ethylbenzamido)ethyl)piperidine-4-carboxamide formate], which IC90 is on record?
**A.** Its IC90 is 0.208 µM.
